Assay results: a melting point compilation (Tetko et al.; mined from patent text by program, amines drawn as free bases though some values may be those of a salt)

Row | SMILES | melting point
1 | CNC(=O)c1ccc(-c2ccc(NC(=O)NCc3cccnc3)cc2)nc1N | 234 to 236 °C
2 | O=C1N=CC(OCC2CC2)(C(F)(F)F)c2cc(F)ccc2N1 (stereo not drawn) | 198 to 199 °C
3 | C=CCCCCCCCCOc1ccc(O)cc1 | 54 to 55 °C
4 | COCC(CCO)(OC)c1cccc(OCc2ccc3ccccc3c2)c1 (stereo not drawn) | 64 to 65 °C
5 | FC(F)(F)c1ccc(-c2cc(C(F)(F)F)n3cnc(-c4ccncc4)c3n2)cc1 | 240 °C
6 | COCCOC(=O)Cc1cc(Oc2ccc(C(F)(F)F)cc2Cl)ccc1[N+](=O)[O-] | 71.9 to 72.5 °C
7 | COCCCn1c2cc(Cl)ccc2n2c(C)nnc12 | 136 °C
8 | c1ccc(CSc2nc3ccccn3n2)cc1 | 79 to 81 °C
9 | CO[C@@H]1c2ccn3c(C)c(C)nc3c2N[C@H](c2ccccc2)[C@H]1OC=O | 152 to 153 °C
10 | COc1ccc(-c2nc3sccn3c2/C=C/C(=O)c2ccc3c(c2)OCO3)cc1 | 189 to 191 °C
11 | O=C1NC(=O)N(CCc2ccc(Cl)cc2)C1O (stereo not drawn) | 151 to 152 °C
12 | C=C(C)C(=O)OC1=CC(O)(C(C)=O)C(C(=O)O)C=C1 (stereo not drawn) | 153 °C
13 | CC1c2cccc3c2N(CC3)c2ccccc2N1C(=O)CN(C)Cc1ccccc1 (stereo not drawn) | 101 to 106 °C
14 | CCCCCCCCCCCCCCCCCCOc1cc(O)cc(N(CC(=O)O)CC(=O)O)c1 | 143 to 146 °C
15 | CC(C)c1cccc(CCC(O)CC2CCCCC2)c1NC(=O)CC1c2ccccc2Oc2ccccc21 (stereo not drawn) | 148 °C
16 | CCOC(=O)C(C)(C)Sc1ncnc2c(O)n(C)nc12 | 155 to 156 °C
17 | Clc1ccc2c(c1)CCc1cccnc1C2=C1CCN(Cc2cccnc2Cl)CC1 | 56.6 to 60.2 °C
18 | COc1nc(C)nc(NC(=O)NS(=O)(=O)C(C)S(=O)(=O)N2CCCC2)n1 (stereo not drawn) | 136 to 137 °C
19 | O=c1ccc(C2(O)CCCCC2)c[nH]1 | 194 to 196 °C
20 | O=C(NCCCCn1cncn1)c1ccc(Cl)s1 | 97 to 99 °C
21 | C=CCN1C2CCC1C1CCC2N1C(c1ccc(C(=O)N2CCCCC2)cc1)c1cccc(O)c1 (stereo not drawn) | 133 to 135 °C

Row | SMILES | melting point
22 | CN(C)c1ccc(-c2cnc(N)c([N+](=O)[O-])c2)cc1 | 212 °C
23 | Cc1cc(C)c2ncc([N+](=O)[O-])c(-c3ccccc3Cl)c2c1 | 130 to 131 °C
24 | CC(=O)Nc1ccc(SC(F)(F)C(F)F)cc1 | 134 to 135 °C
25 | CN(C(=O)N1CCN2C(=O)OC(c3ccccc3)(c3ccccc3)C2C1)c1ccccc1 (stereo not drawn) | 146 to 147 °C
26 | CCCCCC(O)CCCOC(=O)c1ccccc1 (stereo not drawn) | 90 to 93 °C
27 | CCCn1c(-n2nc(-c3c(-c4ccccc4)nn4ccccc34)ccc2=O)cc(=O)n(CC(=O)OC)c1=O | 191 to 195 °C
28 | COc1nc(C)cc(-n2cncn2)n1 | 98 to 98.5 °C
29 | O=c1[nH]c2ncc(-c3ccc(-n4ccnn4)cc3)nc2n1CC1CCCCC1 | 276 to 278 °C
30 | O=C(O)COc1ccc(C=CC(=O)c2ccc(C(=O)O)cc2)cc1 | 312 to 314 °C
31 | CCn1nc2c(n1)C(N1CCN(C)CC1)=Nc1cc(F)ccc1N2 | 178 to 180 °C
32 | Cc1c(C)c2c(c(C)c1O)C(CBr)C(C)(C)O2 (stereo not drawn) | 79 to 80 °C
33 | N#Cc1cnn(-c2ccc(C(F)(F)F)cc2Cl)c1Br | 127 °C
34 | O=C1CCC(c2ccccc2)(C2CCNC2)CC1 (stereo not drawn) | 75 to 79 °C
35 | COc1cc(C)c(CCCCCCCCCC(=O)CCCCCCCCCCCC(=O)O)c(O)c1OC | 63 to 64 °C
36 | O=S(=O)(N[C@H](Cc1ccc(C(F)(F)F)cc1)[C@@H](O)c1ccc(F)cc1)c1cccc2ccccc12 (racemic) | 176 to 177 °C
37 | CCOC(=O)c1ccc(NC(=O)N(CCc2ccccc2)c2ccc3c(c2)C(C)(C)CCC3(C)C)cc1 | 223 to 225 °C
38 | Clc1ccc2nc3c4ccccc4c4ccccc4c3nc2c1 | 241 to 242 °C
39 | Nc1nc(-c2ccccc2)c2cc(Cl)cc(Cl)c2n1 | 213 °C
40 | CN(Cc1ccccc1)CC1CNC(=O)c2cccc3[nH]cc1c23 (stereo not drawn) | 191 to 193 °C
41 | COc1ccnc(CCc2nc3cc(-c4ccc(S(=O)(=O)N5CCC6(CC5)OCCO6)cc4)cnc3[nH]2)c1 | 121 to 122 °C
42 | Cc1cccc(-c2[nH]c(C(C)C)nc2-c2ccc(F)c(-c3ccc(C(=O)NC4CCOCC4)cc3)c2)n1 | 130 to 132 °C

Row | SMILES | melting point
43 | CC(=O)SCC(C(=O)NC(Cc1ccc(O)cc1)C(=O)O)C(F)(F)F (stereo not drawn) | 170 to 173 °C
44 | COc1ccccc1N1CCN(CCc2ccc3[nH]c(=O)oc3c2)CC1 | 182 to 184 °C
45 | CCn1c(=O)ccc2cnc(Nc3ccc(N(C)C)cc3)nc21 | 189 to 191 °C
46 | O=[N+]([O-])c1ccc(SNCCO)c(C(Cl)(Cl)Cl)c1 | 85 °C
47 | O=C(CCCCCNC(=O)Cc1ccc(-c2ccccc2)cc1)NO | 226 to 227 °C
48 | CCCCn1c(=O)c2c(NC)n[nH]c2n(Cc2ccc([N+](=O)[O-])cc2)c1=O | 277 to 279 °C
49 | CCOC(=O)c1snnc1C | 59 to 61 °C
50 | O=CNC1=CCc2cc(Cl)ccc21 | 155 °C
51 | CCc1nn2ccc3c(c2c1C(C)C#N)CCO3 (stereo not drawn) | 86 to 88 °C
52 | NS(=O)(=O)c1cc(CCNC(=O)c2cnc3ccccc3c2)ccc1OCCOCC(F)(F)F | 206 to 210 °C
53 | CC(=O)Nc1cc(-n2c(=O)cc(C(F)(F)F)[nH]c2=O)c(F)cc1Cl | 264 to 266 °C
54 | CSCCn1nc(-c2cc(C(C)(C)C)c(O)c(C(C)(C)C)c2)c2cccnc21 | 104 to 106 °C
55 | C[C@@H]1O[C@](/C=C/C2CC2)(C(F)(F)F)c2cc(F)ccc2NC1=O (relative stereo) | 180 to 182 °C
56 | CC(C)(C)OC(=O)N[C@@H](Cc1cc(F)cc(F)c1)[C@H](O)CCl | 149 °C
57 | COC(=O)C(C)(C)Oc1cc(C)c(C)c(Br)c1C | 66 to 68 °C
58 | CC(C)(C)OC(=O)N1[C@@H](c2ccccc2)[C@H](C(=O)OC(=O)[C@@H]2OC(C)(C)N(C(=O)OC(C)(C)C)[C@H]2c2ccccc2)OC1(C)C | 46 °C
59 | c1ccc(-c2cc3nc(N4CCOCC4)c4ccccc4c3nn2)cc1 | 214 to 216 °C
60 | O=CNCC1CN(c2c(F)cc3c(=O)c(C(=O)O)cn(C4CC4)c3c2F)CCO1 (stereo not drawn) | 210 to 213 °C
61 | C(=C\c1ncc(-c2cnc(-c3ccccc3)nc2)[nH]1)/c1cccnc1 | 258 °C

Further lines, results first:

Row | melting point | SMILES
62 | 260 °C | O=C(O)CNC1CCc2ccc(O)cc21 (stereo not drawn)
63 | 144 to 147 °C | COc1cccc(Sc2cccc([N+](=O)[O-])c2C#N)c1
64 | 157 to 158 °C | Cn1cc(OS(C)(=O)=O)c(=O)c2ccc(Cl)cc21
65 | 240 to 243 °C | Cc1nc(-n2ccc(O)cc2=O)sc1C(=O)NCc1ccccc1
66 | 73 to 74 °C | COc1ccc(NCc2cc(OC)c(OC)c(OC)c2)cc1
67 | 144 to 146 °C | CCOC(=O)c1cccc(NC(=O)c2ccc(OC)c(N)c2)c1
68 | 106 to 154 °C | COc1cncc(OC)c1CCCOc1cccnc1Oc1cccc(Br)c1
69 | 83.5 to 85.5 °C | CC(=O)N(C)c1ccc(CO)cc1
70 | 155 to 157 °C | CCOC(=O)C(=Cc1cccc2ccccc12)c1csc(N)n1
71 | 266 to 268 °C | Cc1nc2c(cc1Br)c(=O)c(C(=O)NCc1ccc(Cl)cc1)cn2C
72 | 106 °C | COC(=O)CC1c2cc([N+](=O)[O-])ccc2N(C(C)=O)C1C (stereo not drawn)
73 | 153 to 155 °C | Nc1cc(C(=O)O)c(Cl)cc1F
74 | 184 to 186 °C | CCCCC(O)Cc1c(O)c2cccnc2n(-c2ccccc2)c1=O (stereo not drawn)
75 | 180 to 184 °C | COc1ccc(CCC(N)CC(=O)O)cc1 (stereo not drawn)
76 | 200 °C | CCOC(=O)c1c(=O)c2cc(F)c(F)cc2n2ccccc12
77 | 205 to 207 °C | CC(=O)NNc1ccc(NC(=S)Nc2ccccc2)cc1
78 | 217 to 219 °C | O=C(NNC(=O)c1ccccc1Cl)c1ccccc1Cl
79 | 145 to 146 °C | C=CC(=O)c1c(-c2ccccc2)[nH]c2ccccc12
80 | 86 to 88 °C | COc1cc(CBr)ccc1OC(=O)c1ccccc1
81 | 179 to 181 °C | O=C(NCc1cccs1)c1cc2ccnc(Cl)c2[nH]1
82 | 204 to 205 °C | O=C(Nc1c[nH]nc1C(=O)NCc1ccccc1)c1ccccn1

Row | melting point | SMILES
83 | 137 to 138 °C | COc1cccc(C(O)C(C)(C)NC(=O)Cc2ccc(OC)c(OC)c2)c1 (stereo not drawn)
84 | 262 to 264 °C | O=C(O)c1cncc(O)c1C(=O)c1cc(Cl)ccc1F
85 | 174 to 175 °C | COc1ccc(S(=O)(=O)CC(CS(=O)(=O)c2ccc(OC)cc2)C(=O)O)cc1
86 | 108 °C | COc1cccc(NC=C2C(=O)OC(C)(C)OC2=O)c1
87 | 236 to 237 °C | CC(C)n1nc(-c2sc(N)nc2-c2cccc(Cl)c2)ccc1=O
88 | 45 to 47 °C | C=CN(C(=O)CCl)c1c(CC)cccc1CC
89 | 52 to 55 °C | COCC1=C(C(=O)OC)[C@H](c2ccc(F)c(F)c2)N(C(=O)NCCC(=O)O)C(=O)N1
90 | 154 to 155 °C | COc1cc(NS(C)(=O)=O)cc(OC)c1-c1ccc(C[C@H](NC(=O)c2c(Cl)cccc2Cl)C(=O)O)cc1
91 | 164 to 167 °C | CNC(=O)c1cccc(Oc2ncccc2C(=O)NCc2ccccc2)c1
92 | 177 to 178 °C | Cc1nc(N2CCN(Cc3ccc(F)cc3)C2=O)sc1C(=O)NCc1ccc(F)cc1
93 | > 300 °C | CC(=O)Nc1cccc2c1C(=O)c1c-2n[nH]c1-c1ccccc1
94 | 127 °C | COc1ccc(C=CC(=O)c2c(OC)cc(OC)cc2OC(=O)OCc2ccccc2)cc1
95 | 112 to 117 °C | CC(C)C(=O)Nc1nsnc1-c1c(Cl)cccc1Cl
96 | 171 °C | COc1cc(N)c([N+](=O)[O-])cc1O
97 | 129 to 130 °C | CCN(c1nc2ccccc2c(=O)o1)c1ccccc1I
98 | 124 to 128 °C | COc1cc(OC)c(N2CCCC2)cc1/C=C/C(=O)c1ccc(S(=O)(=O)Nc2ccccn2)cc1
99 | 283 to 284 °C | COc1cccc2c(=O)sc(C(=O)O)cc12
100 | 215 to 217 °C | COc1c(/C=C/C(=O)Nc2ccccc2)c(=O)c2ccc(Cl)cc2[nH]c1=O
101 | 232 to 234 °C | COc1cccc(Oc2ccc(C(=O)O)cc2C(=O)O)c1
102 | 254 to 257 °C | CCC1=Nc2cc(CO)ccc2C(=O)C1
103 | 171 to 173 °C | O=C1NCCc2c(OCc3ccccc3)cccc21
